Data as given in patent US10550142B2, “Quercetin-based compound” (AMOREPACIFIC CORPORATION, priority 2016, dated 2020).

System: skin
Test: Cumulative skin irritation test, HRIPT (human repeated insult patch test)
Format: in vivo
Parameters: key to skin reactivity (ICDRG criteria): −: Negative (no reaction); ±: Suspicious or slight erythema, etc.; +: Weak reaction (not accompanied by vesicles), erythema, papules; ++: Severe reaction (accompanied by vesicles), erythema, papules, vesicles; +++: Strong reaction, bullae
Settings: for Number of subjects showing ±, + or ++ reactivity 1st: 1st patch; for Number of subjects showing ±, + or ++ reactivity 2nd: 2nd patch; for Number of subjects showing ±, + or ++ reactivity 3rd: 3rd patch; for Number of subjects showing ±, + or ++ reactivity 4th: 4th patch; for Number of subjects showing ±, + or ++ reactivity 5th: 5th patch; for Number of subjects showing ±, + or ++ reactivity 6th: 6th patch; for Number of subjects showing ±, + or ++ reactivity 7th: 7th patch; for Number of subjects showing ±, + or ++ reactivity 8th: 8th patch; for Number of subjects showing ±, + or ++ reactivity 9th: 9th patch; for Average reactivity: less than 3 = safe
Experimental: HRIPT (human repeated insult patch test) was performed to evaluate the cumulative skin irritation of quercetin 3-O-[3-O″-(E)-p-coumaroyl][β-D-glucopyranosyl-(1→3)-O-α-L-rhamnopyranosyl-(1→6)-O-β-D-glucopyranoside] and quercetin 3-O-[3-O″-(E)-p-coumaroyl][α-L-rhamnopyranosyl-(1→6)-O-β-D-glucopyranoside] and determine the range of concentration applicable to the skin. Specifically, 15 healthy adult subjects were randomly selected, and 20 μl of a test composition (composition for the skin including an emulsifier, a stabilizer, purified water, etc. in addition to each of the above compounds) containing 0.5% by weight, 1% by weight or 3% by weight of each of the compounds was dropped into each chamber (IQ chamber, Epitest Ltd, Finland) The patch was applied to the upper right side of the back of the subject, and after 24 hours from the application, it was replaced with a new patch. In this way, a total of 9 patches were applied, 3 times a week for 3 weeks. The skin reaction was checked before and after application of each patch. The skin reaction was checked until after 48 hours from the removal of the final patch, and the average reactivity was calculated. The skin reaction was evaluated according to the criteria of the International Contact Dermatitis Research Group (ICDRG). In the above table, “novel substance 31” denotes quercetin 3-O-[3-O″-(E)-p-coumaroyl][β-D-glucopyranosyl-(1→3)-O-α-L-rhamnopyranosyl-(1→6)-O-β-D-glucopyranoside], and “novel substance 32” denotes quercetin 3-O-[3-O″-(E)-p-coumaroyl][α-L-rhamnopyranosyl-(1→6)-O-β-D-glucopyranoside.

[1] = 0.5% by weight, line 1 of 3 (±)
[2] = 0.5% by weight, line 2 of 3 (+)
[3] = 0.5% by weight, line 3 of 3 (++)

CC1OC(OCC2OC(Oc3c(-c4ccc(O)c(O)c4)oc4cc(O)cc(O)c4c3=O)C(O)C(OC(=O)/C=C/c3ccc(O)cc3)C2O)C(O)C(OC2OC(CO)C(O)C(O)C2O)C1O [Novel substance 31, quercetin 3-O-[3-O″-(E)-p-coumaroyl][β-D-glucopyranosyl-(1→3)-O-α-L-rhamnopyranosyl-(1→6)-O-β-D-glucopyranoside]]
0 number of persons: Number of subjects showing ±, + or ++ reactivity 1st [1] | Number of subjects showing ±, + or ++ reactivity 1st [2] | Number of subjects showing ±, + or ++ reactivity 1st [3] | Number of subjects showing ±, + or ++ reactivity 2nd [1] | Number of subjects showing ±, + or ++ reactivity 2nd [2] | Number of subjects showing ±, + or ++ reactivity 2nd [3] | Number of subjects showing ±, + or ++ reactivity 3rd [1] | Number of subjects showing ±, + or ++ reactivity 3rd [2] | Number of subjects showing ±, + or ++ reactivity 3rd [3] | Number of subjects showing ±, + or ++ reactivity 4th [1] | Number of subjects showing ±, + or ++ reactivity 4th [2] | Number of subjects showing ±, + or ++ reactivity 4th [3] | Number of subjects showing ±, + or ++ reactivity 5th [1] | Number of subjects showing ±, + or ++ reactivity 5th [2] | Number of subjects showing ±, + or ++ reactivity 5th [3] | Number of subjects showing ±, + or ++ reactivity 6th [1] | Number of subjects showing ±, + or ++ reactivity 6th [2] | Number of subjects showing ±, + or ++ reactivity 6th [3] | Number of subjects showing ±, + or ++ reactivity 7th [1] | Number of subjects showing ±, + or ++ reactivity 7th [2] | Number of subjects showing ±, + or ++ reactivity 7th [3] | Number of subjects showing ±, + or ++ reactivity 8th [1] | Number of subjects showing ±, + or ++ reactivity 8th [2] | Number of subjects showing ±, + or ++ reactivity 8th [3] | Number of subjects showing ±, + or ++ reactivity 9th [1] | Number of subjects showing ±, + or ++ reactivity 9th [2] | Number of subjects showing ±, + or ++ reactivity 9th [3] | Number of subjects showing ±, + or ++ reactivity 1st (1% by weight, line 1 of 3 (±)) | Number of subjects showing ±, + or ++ reactivity 1st (1% by weight, line 2 of 3 (+)) | Number of subjects showing ±, + or ++ reactivity 1st (1% by weight, line 3 of 3 (++)) | Number of subjects showing ±, + or ++ reactivity 2nd (1% by weight, line 1 of 3 (±)) | Number of subjects showing ±, + or ++ reactivity 2nd (1% by weight, line 2 of 3 (+)) | Number of subjects showing ±, + or ++ reactivity 2nd (1% by weight, line 3 of 3 (++)) | Number of subjects showing ±, + or ++ reactivity 3rd (1% by weight, line 1 of 3 (±)) | Number of subjects showing ±, + or ++ reactivity 3rd (1% by weight, line 2 of 3 (+)) | Number of subjects showing ±, + or ++ reactivity 3rd (1% by weight, line 3 of 3 (++)) | Number of subjects showing ±, + or ++ reactivity 4th (1% by weight, line 1 of 3 (±)) | Number of subjects showing ±, + or ++ reactivity 4th (1% by weight, line 2 of 3 (+)) | Number of subjects showing ±, + or ++ reactivity 4th (1% by weight, line 3 of 3 (++)) | Number of subjects showing ±, + or ++ reactivity 5th (1% by weight, line 1 of 3 (±)) | Number of subjects showing ±, + or ++ reactivity 5th (1% by weight, line 2 of 3 (+)) | Number of subjects showing ±, + or ++ reactivity 5th (1% by weight, line 3 of 3 (++)) | Number of subjects showing ±, + or ++ reactivity 6th (1% by weight, line 1 of 3 (±)) | Number of subjects showing ±, + or ++ reactivity 6th (1% by weight, line 2 of 3 (+)) | Number of subjects showing ±, + or ++ reactivity 6th (1% by weight, line 3 of 3 (++)) | Number of subjects showing ±, + or ++ reactivity 7th (1% by weight, line 1 of 3 (±)) | Number of subjects showing ±, + or ++ reactivity 7th (1% by weight, line 2 of 3 (+)) | Number of subjects showing ±, + or ++ reactivity 7th (1% by weight, line 3 of 3 (++)) | Number of subjects showing ±, + or ++ reactivity 8th (1% by weight, line 1 of 3 (±)) | Number of subjects showing ±, + or ++ reactivity 8th (1% by weight, line 2 of 3 (+)) | Number of subjects showing ±, + or ++ reactivity 8th (1% by weight, line 3 of 3 (++)) | Number of subjects showing ±, + or ++ reactivity 9th (1% by weight, line 1 of 3 (±)) | Number of subjects showing ±, + or ++ reactivity 9th (1% by weight, line 2 of 3 (+)) | Number of subjects showing ±, + or ++ reactivity 9th (1% by weight, line 3 of 3 (++)) | Number of subjects showing ±, + or ++ reactivity 1st (3% by weight, line 1 of 3 (±)) | Number of subjects showing ±, + or ++ reactivity 1st (3% by weight, line 2 of 3 (+)) | Number of subjects showing ±, + or ++ reactivity 1st (3% by weight, line 3 of 3 (++)) | Number of subjects showing ±, + or ++ reactivity 2nd (3% by weight, line 1 of 3 (±)) | Number of subjects showing ±, + or ++ reactivity 2nd (3% by weight, line 2 of 3 (+)) | Number of subjects showing ±, + or ++ reactivity 2nd (3% by weight, line 3 of 3 (++)) | Number of subjects showing ±, + or ++ reactivity 3rd (3% by weight, line 1 of 3 (±)) | Number of subjects showing ±, + or ++ reactivity 3rd (3% by weight, line 2 of 3 (+)) | Number of subjects showing ±, + or ++ reactivity 3rd (3% by weight, line 3 of 3 (++)) | Number of subjects showing ±, + or ++ reactivity 4th (3% by weight, line 1 of 3 (±)) | Number of subjects showing ±, + or ++ reactivity 4th (3% by weight, line 2 of 3 (+)) | Number of subjects showing ±, + or ++ reactivity 4th (3% by weight, line 3 of 3 (++)) | Number of subjects showing ±, + or ++ reactivity 5th (3% by weight, line 1 of 3 (±)) | Number of subjects showing ±, + or ++ reactivity 5th (3% by weight, line 2 of 3 (+)) | Number of subjects showing ±, + or ++ reactivity 5th (3% by weight, line 3 of 3 (++)) | Number of subjects showing ±, + or ++ reactivity 6th (3% by weight, line 1 of 3 (±)) | Number of subjects showing ±, + or ++ reactivity 6th (3% by weight, line 2 of 3 (+)) | Number of subjects showing ±, + or ++ reactivity 6th (3% by weight, line 3 of 3 (++)) | Number of subjects showing ±, + or ++ reactivity 7th (3% by weight, line 1 of 3 (±)) | Number of subjects showing ±, + or ++ reactivity 7th (3% by weight, line 2 of 3 (+)) | Number of subjects showing ±, + or ++ reactivity 7th (3% by weight, line 3 of 3 (++)) | Number of subjects showing ±, + or ++ reactivity 8th (3% by weight, line 1 of 3 (±)) | Number of subjects showing ±, + or ++ reactivity 8th (3% by weight, line 2 of 3 (+)) | Number of subjects showing ±, + or ++ reactivity 8th (3% by weight, line 3 of 3 (++)) | Number of subjects showing ±, + or ++ reactivity 9th (3% by weight, line 1 of 3 (±)) | Number of subjects showing ±, + or ++ reactivity 9th (3% by weight, line 2 of 3 (+)) | Number of subjects showing ±, + or ++ reactivity 9th (3% by weight, line 3 of 3 (++))
0: Average reactivity (0.5% by weight) | Average reactivity (1% by weight) | Average reactivity (3% by weight)
−: skin reactivity (ICDRG criteria) (within the content range 0.5, 1, 3% by weight, 9 patches, 15 subjects)
